Where “and” joins values, the source holds several entries; their conditions need not be identical. Equal values may be shown once.
Test: Body weight and innervated muscle weight under rapamycin treatment (Table 2)
Format: in vivo, mouse
Set-up: key to Body weight before / Body weight after: body weight in g; Gastroc weight, innervated muscle: unit not given here
Settings: for Gastroc weight, innervated muscle / TA weight, innervated muscle / sol (soleus) weight, innervated muscle / Body weight after / Body weight before: individual mice; for TA weight, innervated muscle, MEAN / sol (soleus) weight, innervated muscle, MEAN / Body weight after, MEAN / Body weight before, MEAN: mean of 6 mice; for Body weight after, MEAN / Body weight before, MEAN: in g
Method: Rapamycin (LC Laboratories; Woburn, Mass.) was initially dissolved in 100% ethanol, stored at −20° C., and further diluted in an aqueous solution of 5.2% Tween 80 and 5.2% PEG 400 (final ethanol concentration, 2%) immediately before use (Wendel et al., 2004). Denervated NSA mice (male, 40 g) were injected immediately with rapamycin i.p. at 1.5 mg/kg, or 6 mg/kg body weight, every other day. Control mice were injected with vehicle with the same amount of ethanol solvent with rapamycin group (6 mg·kg). Muscle samples were collected 15 days later. Muscle wet weight was recorded immediately. For immunostaining, muscles were frozen in OCT in dry ice-cold isopentane. For RNA and protein extraction, muscles were quickly frozen in liquid nitrogen. Student t-test was used to evaluate the statistical significance. P<0.05 was considered as statistically significant. Each of these experiments were performed such that there were 3 to 6 separate experimental mice (for each genotype, dose, and time-point) and 3-6 separate control mice per experiment.

[1] = Inn + 1.5 (rapamycin 1.5 mg/kg i.p. every other day, 15 days), in g (unit assumed)
[2] = Inn + 1.5 (rapamycin 1.5 mg/kg), in g (unit assumed)
[3] = Inn + 6 (rapamycin 6 mg/kg i.p. every other day, 15 days)
[4] = Inn + 6 (rapamycin 6 mg/kg), in g (unit assumed)
[5] = rapamycin at the doses used (1.5 or 6 mg/kg i.p. every other day)

With CO[C@H]1C[C@@H]2CC[C@@H](C)[C@@](O)(O2)C(=O)C(=O)N2CCCC[C@H]2C(=O)O[C@H]([C@H](C)C[C@@H]2CC[C@@H](O)[C@H](OC)C2)CC(=O)[C@H](C)/C=C(\C)[C@@H](O)[C@@H](OC)C(=O)[C@H](C)C[C@H](C)/C=C/C=C/C=C/1C [rapamycin, Rapamycin] the “Gastroc weight, innervated muscle” value (Inn + 1.5 (rapamycin 1.5 mg/kg i.p. every other day, 15 days)) was 0.1984 and 0.2043 and 0.2062 and 167.3 and 196.7, the “TA weight, innervated muscle” value [1] was 0.0719 and 0.0697 and 0.068 and 0.0898 and 0.0795 and 0.0597 and the “sol (soleus) weight, innervated muscle” value [1] was 0.0114 and 0.0095 and 0.0099 and 0.0106 and 0.0102 and 0.0075. The “TA weight, innervated muscle, MEAN” value [2] was 0.0731, the “sol (soleus) weight, innervated muscle, MEAN” value [2] was 0.00985 and the “Gastroc weight, innervated muscle” value [3] was 0.2084 and 0.2168 and 0.1798 and 217.7 and 230.5. The “sol (soleus) weight, innervated muscle” value [3] was 0.0102 and 0.0116 and 0.0106 (3×) and 0.0115, the “TA weight, innervated muscle” value (Inn + 6 (rapamycin 6 mg/kg i.p. every other day, 15 days), in g (unit assumed)) was 0.0686 and 0.0751 and 0.0645 and 0.078 and 0.0713 and 0.0759 and the “TA weight, innervated muscle, MEAN” value [4] was 0.07223. The “sol (soleus) weight, innervated muscle, MEAN” value [4] was 0.01085, the Body weight after (Rapa − 1.5, after) was 45 and 46 and 42 (2×) and 40 and 39 and the “Body weight after, MEAN” value (Rapa − 1.5, after) was 42.33. For the same molecule, the Body weight before (Rapa − 1.5, before) was 41 g (2×) and 46 g and 44 g and 42 g (2×), the “Body weight before, MEAN” value (Rapa − 1.5, before) was 42.67 and the Body weight after (Rapa − 6, after, in g (unit assumed)) was 46 and 38 and 41 and 42 and 40 and 39. For the same molecule, the “Body weight after, MEAN” value (Rapa − 6, after) was 41, the Body weight before (Rapa − 6, before, in g (unit assumed)) was 39 and 42 and 55 and 43 and 41 and 44 and the “Body weight before, MEAN” value (Rapa − 6, before) was 44. The “influence on body weight” value [5] was “did not influence”, the “influence on innervated muscle weight” value [5] was “does not change” and the “influence on innervated muscle weight” value (rapamycin at the doses used (1.5 or 6 mg/kg i.p. every other day), listed as Rapamycin) was “did not influence”.
